Experimental data: patent US12215093B2, “Bicyclic carboxamides and methods of use thereof” (Tempest Therapeutics, Inc., priority 2018, dated 2025)

Key:
EP4 = molecular target: T1, EP4 (Homo sapiens, UniProt P35408); experiment: Functional calcium flux assay, EP4; format: cell-based; settings: stably transfected HEK293 cells; PGE2 10 nM; read-out: EP4 Ca2+-flux assay IC50
T1 construct: host or cells: stably transfected HEK293 cells co-expressing a promiscuous G protein and a clytin variant
Description: Each receptor subtype has an additional promiscuous G protein added in order to couple the aforementioned receptor to the calcium signaling pathway. The parental cell line used also expresses a novel variant of clytin, a calcium-activated photo-protein, to enable sensitive luminescent detection. Briefly, cells were plated at 50,000 cells-per-well in black, clear bottom 96-well plates. The plated cells were allowed to sit at room temperature for 30 min prior to transferring to a humidified, 37° C., 5% CO2 incubator for 18 to 24 h. Assay buffer (HBSS with 20 mM HEPES) and loading buffer (assay buffer plus 10 μM coelenterazine) were prepared on the day of the assay. Assays were performed by aspirating media from the assay plate and washing once with assay buffer, then replacing with loading buffer and allowing the cells to incubate for 1.5 h at room temperature. Compounds were prepared in assay buffer at a 3× final concentration in non-binding plates. Compounds were added to the cell plates and incubated for 30 min at room temperature. The prostanoid receptor ligand PGE2 was prepared at a 4× dilution ratio for a final concentration of 10 nM. Plates were run on a Flexstation™ using a 100 ms integration luminescence protocol for a total of 60 sec with ligand addition at 15 sec. Data were obtained from relative light units as measured by area under the curve.

EP2 = EP2 (Homo sapiens, UniProt P43116); experiment: cell-based;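 further: functional calcium flux assay in stably transfected HEK293 cells expressing EP2 coupled via a promiscuous G protein, clytin luminescence read as area under the curve, 30 min compound preincubation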
Sequence of EP2 (P43116 whole entry): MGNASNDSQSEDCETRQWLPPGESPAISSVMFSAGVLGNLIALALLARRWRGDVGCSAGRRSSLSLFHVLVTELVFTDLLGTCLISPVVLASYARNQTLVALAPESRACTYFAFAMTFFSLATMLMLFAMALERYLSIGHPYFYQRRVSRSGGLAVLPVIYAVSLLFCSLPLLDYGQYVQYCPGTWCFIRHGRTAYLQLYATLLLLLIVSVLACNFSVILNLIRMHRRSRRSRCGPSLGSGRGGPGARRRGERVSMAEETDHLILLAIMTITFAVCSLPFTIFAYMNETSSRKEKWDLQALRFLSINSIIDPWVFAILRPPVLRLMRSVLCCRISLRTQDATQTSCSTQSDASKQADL

T1 sequence (P35408 whole entry): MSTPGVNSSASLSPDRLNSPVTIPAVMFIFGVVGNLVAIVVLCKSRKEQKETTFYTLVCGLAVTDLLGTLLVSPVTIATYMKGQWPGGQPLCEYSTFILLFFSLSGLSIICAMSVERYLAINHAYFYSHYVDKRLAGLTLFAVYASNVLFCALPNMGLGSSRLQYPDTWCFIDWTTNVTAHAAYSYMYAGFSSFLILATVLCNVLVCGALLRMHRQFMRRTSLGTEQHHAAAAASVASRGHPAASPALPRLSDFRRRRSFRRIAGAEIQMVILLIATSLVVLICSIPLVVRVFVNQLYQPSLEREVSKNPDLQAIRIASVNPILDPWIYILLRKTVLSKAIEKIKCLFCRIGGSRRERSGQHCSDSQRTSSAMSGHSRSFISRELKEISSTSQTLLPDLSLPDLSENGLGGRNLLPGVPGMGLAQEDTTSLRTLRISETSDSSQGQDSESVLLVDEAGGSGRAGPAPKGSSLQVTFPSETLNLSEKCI

IC50 (EP4) [µM]	IC50 (EP2) [µM]	SMILES
0.0066	< 0.025	CC(c1ccc(-c2ccccc2)cc1)n1ncc2c(Cl)ccc(C(=O)NC3CC4(C3)CC(C(=O)O)C4)c21 (racemic) [Example 121, (Sa)-6-(1-((racemic)-1-([1,1′-biphenyl]-4-yl)-ethyl)-4-chloro-1H-indazole-7-carboxamido)spiro[3.3]heptane-2-carboxylic acid]
< 0.001	0.065	CCOc1cccc(-c2ccc(C(C)n3ncc4cccc(C(=O)NC5CC6(C5)CC(C(=O)O)C6)c43)cc2)n1 (racemic) [Example 133, (Sa)-6-(1-((racemic)-1-(4-(6-Ethoxypyridin-2-yl)phenyl)-ethyl)-1H-indazole-7-carboxamido)spiro[3.3]heptane-2-carboxylic acid]
0.0039	0.026	[2H]C([2H])([2H])C([2H])(c1ccc(-c2ccccc2)cc1)n1ncc2c(Cl)ccc(C(=O)NC3CC4(C3)CC(C(=O)O)C4)c21 (racemic) [Example 166, (Sa)-6-(1-((racemic)-1-([1,1′-Biphenyl]-4-yl)ethyl-1,2,2,2-d4)-4-chloro-1H-indazole-7-carboxamido)spiro[3.3]heptane-2-carboxylic acid]
0.0012	0.028	[2H]C([2H])([2H])C([2H])(c1ccc(-c2ccccc2)cc1)n1ncc2cccc(C(=O)NC3CC4(C3)CC(C(=O)O)C4)c21 (racemic) [Example 168, (Sa)-6-(1-((racemic)-1-([1,1′-Biphenyl]-4-yl)ethyl-1,2,2,2-d4)-1H-indazole-7-carboxamido)spiro[3.3]heptane-2-carboxylic acid]
< 0.001	< 0.025	CC(c1ccc(-c2ccccc2)cc1)n1ncc2c(Cl)ccc(C(=O)NC3CC4(C3)CC(C(=O)O)C4)c21 (single isomer, unassigned) [Example 130, (Sa)-6-(1-((R) or (S)-1-([1,1′-biphenyl]-4-yl)-ethyl)-4-chloro-1H-indazole-7-carboxamido)spiro[3.3]heptane-2-carboxylic acid]
0.0032	0.064	COc1ccc2cc(-c3ccc(Cn4ccc5c(F)ccc(C(=O)NC6CC7(CC(CC(=O)O)C7)C6)c54)cc3)ccc2n1 (single isomer, unassigned) [Example 137, (Sa)-2-(6-(4-Fluoro-1-(4-(2-methoxyquinolin-6-yl)benzyl)-1H-indole-7-carboxamido)spiro[3.3]heptan-2-yl)acetic acid]
< 0.001	< 0.025	COc1ccc2cc(-c3ccc(Cn4ccc5c(F)ccc(C(=O)NC6CC7(CC(CC(=O)O)C7)C6)c54)cc3)ccc2n1 (single isomer, unassigned) [Example 140, (Ra)-2-(6-(4-Fluoro-1-(4-(2-methoxyquinolin-6-yl)benzyl)-1H-indole-7-carboxamido)spiro[3.3]heptan-2-yl)acetic acid]
0.0035	0.041	[2H]C([2H])([2H])C([2H])(c1ccc(-c2ccccc2)cc1)n1ncc2c(Cl)ccc(C(=O)NC3CC4(C3)CC(C(=O)O)C4)c21 (single isomer, unassigned) [Example 167, (Sa)-6-(1-((R) or (S)-1-([1,1′-Biphenyl]-4-yl)ethyl-1,2,2,2-d4)-4-chloro-1H-indazole-7-carboxamido)spiro[3.3]heptane-2-carboxylic acid]
0.0015	0.063	[2H]C([2H])([2H])C([2H])(c1ccc(-c2ccccc2)cc1)n1ncc2cccc(C(=O)NC3CC4(C3)CC(C(=O)O)C4)c21 (single isomer, unassigned) [Example 169, (Sa)-6-(1-((R) or (S)-1-([1,1′-Biphenyl]-4-yl)ethyl-1,2,2,2-d4)-1H-indazole-7-carboxamido)spiro[3.3]heptane-2-carboxylic acid]
< 0.001	< 0.025	COc1ccc(-c2ccc(Cn3ccc4c(F)ccc(C(=O)NC5CC6(C5)CC(C(=O)O)C6)c43)cc2)cc1Cl (centres unmarked) [Example 25, (Sa)-6-(1-((3′-Chloro-4′-methoxy-[1,1′-biphenyl]-4-yl)methyl)-4-fluoro-1H-indole-7-carboxamido)spiro[3.3]heptane-2-carboxylic acid]
< 0.001	< 0.025	[2H]C([2H])([2H])Oc1cccc(-c2ccc(Cn3ccc4c(F)ccc(C(=O)NC5CC6(C5)CC(C(=O)O)C6)c43)cc2)c1 (centres unmarked) [Example 52, (Sa)-6-(4-fluoro-1-((3’-methoxy-d3-[1,1′-biphenyl]-4-yl)methy1)-1H-indole-7-carboxamido)spiro[3.3]heptane-2-carboxylic acid]
< 0.001	0.043	CCOc1cccc(-c2ccc(Cn3ccc4c(F)ccc(C(=O)NC5CC6(C5)CC(C(=O)O)C6)c43)cc2)c1 (centres unmarked) [Example 54, (Sa)-6-(1-((3’-ethoxy-[1,1′-biphenyl]-4-yl)methyl)-4-fluoro-1H-indole-7-carboxamido)spiro[3.3]heptane-2-carboxylic acid]
< 0.001	0.076	CCOc1cccc(-c2ccc(Cn3ccc4c(F)ccc(C(=O)NC5CC6(C5)CC(C(=O)O)C6)c43)cc2)n1 (centres unmarked) [Example 56, (Sa)-6-(1-(4-(6-Ethoxypyridin-2-yl)benzyl)-4-fluoro-1H-indole-7-carboxamido)spiro[3.3]heptane-2-carboxylic acid]
0.003	0.043	O=C(NC1CC2(C1)CC(C(=O)O)C2)c1ccc(F)c2ccn(Cc3ccc(-c4ccccc4)c(F)c3)c12 (centres unmarked) [Example 65, (Sa)-6-(4-Fluoro-1-((2-fluoro-[1,1′-biphenyl]-4-yl)methyl)-1H-indole-7-carboxamido)spiro[3.3]heptane-2-carboxylic acid]
< 0.001	< 0.025	O=C(NC1CC2(C1)CC(C(=O)O)C2)c1ccc(F)c2ccn(Cc3ccc(-c4ccccc4)cc3F)c12 (centres unmarked) [Example 66, (Sa)-6-(4-Fluoro-1-((3-fluoro-[1,1′-biphenyl]-4-yl)methyl)-1H-indole-7-carboxamido)spiro[3.3]heptane-2-carboxylic acid]
< 0.001	0.094	O=C(NC1CC2(C1)CC(C(=O)O)C2)c1ccc(Cl)c2ccn(Cc3ccc(N4CCOCC4)cc3)c12 (centres unmarked) [Example 71, (Sa)-6-(4-Chloro-1-(4-morpholinobenzyl)-1H-indole-7-carboxamido)spiro[3.3]heptane-2-carboxylic acid]
0.0044	0.099	COc1cc(-c2ccc(Cn3ncc4c(Cl)ccc(C(=O)NC5CC6(C5)CC(C(=O)O)C6)c43)cc2)ccn1 (centres unmarked) [Example 78, (Sa)-6-(4-Chloro-1-(4-(2-methoxypyridin-4-yl)benzyl)-1H-indazole-7-carboxamido)spiro[3.3]heptane-2-carboxylic acid]
< 0.001	< 0.025	CCOc1cccc(-c2ccc(Cn3ncc4c(Cl)ccc(C(=O)NC5CC6(C5)CC(C(=O)O)C6)c43)cc2)n1 (centres unmarked) [Example 83, (Sa)-6-(4-Chloro-1-(4-(6-ethoxypyridin-2-yl)benzyl)-1H-indazole-7-carboxamido)spiro[3.3]heptane-2-carboxylic acid]
< 0.001	< 0.025	COc1cccc(-c2ccc(Cn3ccc4c(OC)ncc(C(=O)NC5CC6(C5)CC(C(=O)O)C6)c43)cc2)n1 (centres unmarked) [Example 92, (Sa)-6-(4-Methoxy-1-(4-(6-methoxypyridin-2-yl)benzyl)-1H-pyrrolo[3,2-c]pyridine-7-carboxamido)spiro[3.3]heptane-2-carboxylic acid]
